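These data come from cells grown in 96-well plates and exposed to compound for 48 hours at five concentrations. The concentration for 50% growth inhibition is given as GI50. TGI: total growth inhibition.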
Tests used:
Test in all cases: NCI anticancer screen, dose series, 48 h
KM12 colon = tested on: KM12 colon
NCI/ADR-RES ovarian = tested on: NCI/ADR-RES ovarian
NCI-H226 lung = tested on: NCI-H226 lung
PC-3 prostate = tested on: PC-3 prostate
NCI-H23 lung = tested on: NCI-H23 lung
SK-MEL-2 melanoma = tested on: SK-MEL-2 melanoma
COLO 205 colon = tested on: COLO 205 colon
MDA-MB-435 = tested on: MDA-MB-435
HS 578T breast = tested on: HS 578T breast
A549 NSCLC = tested on: A549 NSCLC
HCC-2998 colon = tested on: HCC-2998 colon
786-0 renal = tested on: 786-0 renal
SN12C renal = tested on: SN12C renal
IGROV1 ovarian = tested on: IGROV1 ovarian
OVCAR-5 ovarian = tested on: OVCAR-5 ovarian
ACHN renal = tested on: ACHN renal
MDA-MB-231 breast = tested on: MDA-MB-231 breast
NCI-H522 lung = tested on: NCI-H522 lung
HOP-92 NSCLC = tested on: HOP-92 NSCLC
RPMI-8226 leukemia = tested on: RPMI-8226 leukemia
NCI-H460 lung = tested on: NCI-H460 lung
UO-31 renal = tested on: UO-31 renal
UACC-62 melanoma = tested on: UACC-62 melanoma
SK-MEL-28 melanoma = tested on: SK-MEL-28 melanoma
OVCAR-8 ovarian = tested on: OVCAR-8 ovarian
HCT-15 colon = tested on: HCT-15 colon
HCT-116 colon = tested on: HCT-116 colon
TK-10 renal = tested on: TK-10 renal
HL-60(TB) leukemia = tested on: HL-60(TB) leukemia
MOLT-4 leukemia = tested on: MOLT-4 leukemia
HOP-62 NSCLC = tested on: HOP-62 NSCLC
RXF 393 renal = tested on: RXF 393 renal
CCRF-CEM leukemia = tested on: CCRF-CEM leukemia
SK-OV-3 ovarian = tested on: SK-OV-3 ovarian
OVCAR-3 ovarian = tested on: OVCAR-3 ovarian
A498 renal = tested on: A498 renal
U251 CNS = tested on: U251 CNS
SR leukemia = tested on: SR leukemia
MCF7 breast = tested on: MCF7 breast
M14 melanoma = tested on: M14 melanoma
SK-MEL-5 melanoma = tested on: SK-MEL-5 melanoma
SF-539 CNS = tested on: SF-539 CNS
SW-620 colon = tested on: SW-620 colon
OVCAR-4 ovarian = tested on: OVCAR-4 ovarian
UACC-257 melanoma = tested on: UACC-257 melanoma
T-47D breast = tested on: T-47D breast
EKVX NSCLC = tested on: EKVX NSCLC
SNB-75 CNS = tested on: SNB-75 CNS
MALME-3M melanoma = tested on: MALME-3M melanoma
BT-549 breast = tested on: BT-549 breast
SNB-19 CNS = tested on: SNB-19 CNS
LOX IMVI melanoma = tested on: LOX IMVI melanoma
SF-268 CNS = tested on: SF-268 CNS
HT29 colon = tested on: HT29 colon
CAKI-1 renal = tested on: CAKI-1 renal
DU-145 prostate = tested on: DU-145 prostate
SF-295 CNS = tested on: SF-295 CNS

Clc1ccc(-c2ccc(CNCC3CCNCC3)o2)c(-c2ccccc2)c1
GI50 (KM12 colon): 1.79 µM
TGI (KM12 colon): 3.62 µM
GI50 (NCI/ADR-RES ovarian): 1.71 µM
TGI (NCI/ADR-RES ovarian): 3.3 µM
GI50 (NCI-H226 lung): 1.66 µM
TGI (NCI-H226 lung): 3.68 µM
GI50 (PC-3 prostate): 1.38 µM
TGI (PC-3 prostate): 2.76 µM
GI50 (NCI-H23 lung): 1.71 µM
TGI (NCI-H23 lung): 3.32 µM
GI50 (SK-MEL-2 melanoma): 1.76 µM
TGI (SK-MEL-2 melanoma): 3.31 µM
GI50 (COLO 205 colon): 1.64 µM
TGI (COLO 205 colon): 3.36 µM
GI50 (MDA-MB-435): 1.61 µM
TGI (MDA-MB-435): 3.05 µM
GI50 (HS 578T breast): 1.63 µM
TGI (HS 578T breast): 3.42 µM
GI50 (A549 NSCLC): 1.79 µM
TGI (A549 NSCLC): 3.56 µM
GI50 (HCC-2998 colon): 1.62 µM
TGI (HCC-2998 colon): 3.2 µM
GI50 (786-0 renal): 1.58 µM
TGI (786-0 renal): 3.01 µM
GI50 (SN12C renal): 1.54 µM
TGI (SN12C renal): 3.03 µM
GI50 (IGROV1 ovarian): 1.39 µM
TGI (IGROV1 ovarian): 2.93 µM
GI50 (OVCAR-5 ovarian): 1.61 µM
TGI (OVCAR-5 ovarian): 3.04 µM
GI50 (ACHN renal): 1.67 µM
TGI (ACHN renal): 3.06 µM
GI50 (MDA-MB-231 breast): 1.36 µM
TGI (MDA-MB-231 breast): 2.85 µM
GI50 (NCI-H522 lung): 1.85 µM
TGI (NCI-H522 lung): 3.63 µM
GI50 (HOP-92 NSCLC): 1.01 µM
TGI (HOP-92 NSCLC): 2.23 µM
GI50 (RPMI-8226 leukemia): 1.3 µM
TGI (RPMI-8226 leukemia): 3.19 µM
GI50 (NCI-H460 lung): 1.71 µM
TGI (NCI-H460 lung): 3.33 µM
GI50 (UO-31 renal): 1.37 µM
TGI (UO-31 renal): 2.76 µM
GI50 (UACC-62 melanoma): 1.75 µM
TGI (UACC-62 melanoma): 3.27 µM
GI50 (SK-MEL-28 melanoma): 1.79 µM
TGI (SK-MEL-28 melanoma): 3.27 µM
GI50 (OVCAR-8 ovarian): 1.87 µM
TGI (OVCAR-8 ovarian): 3.5 µM
GI50 (HCT-15 colon): 1.19 µM
TGI (HCT-15 colon): 2.6 µM
GI50 (HCT-116 colon): 1.24 µM
TGI (HCT-116 colon): 2.54 µM
GI50 (TK-10 renal): 1.62 µM
TGI (TK-10 renal): 3.13 µM
GI50 (HL-60(TB) leukemia): 1.8 µM
TGI (HL-60(TB) leukemia): 3.69 µM
GI50 (MOLT-4 leukemia): 1.54 µM
TGI (MOLT-4 leukemia): 3.42 µM
GI50 (HOP-62 NSCLC): 1.65 µM
TGI (HOP-62 NSCLC): 3.27 µM
GI50 (RXF 393 renal): 1.36 µM
TGI (RXF 393 renal): 2.79 µM
GI50 (CCRF-CEM leukemia): 0.557 µM
TGI (CCRF-CEM leukemia): 2.31 µM
GI50 (SK-OV-3 ovarian): 1.87 µM
TGI (SK-OV-3 ovarian): 3.33 µM
GI50 (OVCAR-3 ovarian): 1.74 µM
TGI (OVCAR-3 ovarian): 3.46 µM
GI50 (A498 renal): 1.71 µM
TGI (A498 renal): 3.24 µM
GI50 (U251 CNS): 1.56 µM
TGI (U251 CNS): 3.01 µM
GI50 (SR leukemia): 0.347 µM
TGI (SR leukemia): 1.27 µM
GI50 (MCF7 breast): 1.56 µM
TGI (MCF7 breast): 3.3 µM
GI50 (M14 melanoma): 1.63 µM
TGI (M14 melanoma): 3.11 µM
GI50 (SK-MEL-5 melanoma): 1.66 µM
TGI (SK-MEL-5 melanoma): 3.05 µM
GI50 (SF-539 CNS): 1.65 µM
TGI (SF-539 CNS): 3.12 µM
GI50 (SW-620 colon): 1.38 µM
TGI (SW-620 colon): 2.96 µM
GI50 (OVCAR-4 ovarian): 1.85 µM
TGI (OVCAR-4 ovarian): 3.54 µM
GI50 (UACC-257 melanoma): 2.03 µM
TGI (UACC-257 melanoma): 3.57 µM
GI50 (T-47D breast): 1.74 µM
TGI (T-47D breast): 3.82 µM
GI50 (EKVX NSCLC): 1.59 µM
TGI (EKVX NSCLC): 2.95 µM
GI50 (SNB-75 CNS): 1.39 µM
TGI (SNB-75 CNS): 2.81 µM
GI50 (MALME-3M melanoma): 1.88 µM
TGI (MALME-3M melanoma): 3.54 µM
GI50 (BT-549 breast): 1.71 µM
TGI (BT-549 breast): 3.2 µM
GI50 (SNB-19 CNS): 1.64 µM
TGI (SNB-19 CNS): 3.16 µM
GI50 (LOX IMVI melanoma): 1.54 µM
TGI (LOX IMVI melanoma): 3.03 µM
GI50 (SF-268 CNS): 1.62 µM
TGI (SF-268 CNS): 3.27 µM
GI50 (HT29 colon): 1.44 µM
TGI (HT29 colon): 2.89 µM
GI50 (CAKI-1 renal): 1.51 µM
TGI (CAKI-1 renal): 2.9 µM
GI50 (DU-145 prostate): 1.82 µM
TGI (DU-145 prostate): 3.33 µM
GI50 (SF-295 CNS): 1.57 µM
TGI (SF-295 CNS): 3 µM

From PubChem BioAssay (NCI)
